Reference: patent US20180177753A1, “GLYCERYL 3-HYDROXYBUTYRATES FOR MIGRAINE SYMPTOM MANAGEMENT” (NeuroEnergy Ventures, Inc., priority 2016, published 2018)

Key:
Assay type in all cases: in vivo
[1] = Preventive administration before an expected migraine in a subject with chronic repetitive migraine; settings: 70 kg male of Example 2, 20 g 3 times a day, days 90 to 130, started about 5-6 days before expected onset
From the text: The subject of Example 2 discontinues the administration after 35 days, is migraine free for two months and a further episode occurs and Example 2 is followed again, counting the start of this second migraine as day 1, except that after ceasing the administration on day 35, the subject begins administration again on day 90 (about 5-6 days before an expected onset of a further migraine based on this subject's history) and continues administration for an additional 40 days (that is for days 90 to 130).

[2] = Self-administration at onset of prodromal visual disturbances in a subject with episodic migraines; settings: 60 kg female, 15 g orally within minutes of visual disturbances, 3 times a day for 4 days
From the text: A 60 kg person presents with episodic migraines occurring one such headache occurring and then not again for a number of months. At each event, shortly before the headache begins, the subject has visual disturbances classic of migraine. The subject is requested to self-administer 15 grams of glyceryl tris(3-hydroxybutyrate) upon noticing the next time visual disturbance of this type appear and continue to do so 3 times a day for 4 days. The subject notices such symptoms, and ingests 15 g of glyceryl tris(3-hydroxybutyrate) within minutes of noticing the symptoms.

[3] = Self-administration at migraine onset in subjects with chronic repetitive migraine; settings: 70 kg male, 20 g at migraine onset, 3 times a day for 35 days
From the text: There is no known or suspect event triggering these events. The subject is instructed to self-administer 20 g of glyceryl tris(3-hydroxybutyrate) upon the onset of the migraine and to continue to self-administer at this dosage 3 times a day for 35 days.
A 60 kg person presents with chronic repetitive migraine with a similar repetitive pattern to the subject of Examples 2 and 3. They are instructed to self-administer 15 g of glyceryl tris(3-hydroxybutyrate) upon the onset of the migraine, rather than the 20 g as in Examples 2 and 3, but otherwise to follow the regimen in Examples 2 and 3.

## CC(O)CC(=O)OCC(COC(=O)CC(C)O)OC(=O)CC(C)O (stereo not shown) [glyceryl tris(3-hydroxybutyrate)]
[1]
  occurrence of the expected migraine (days 94-95) during the administration period: no such migraine appears
[2]
  duration of the headache that follows, versus past episodes: lesser duration
  intensity of the headache that follows, versus past episodes: lesser intensity
[3]
  duration of the usual initial migraine, versus past history: shorter duration
  frequency of the repetitive migraines, versus past history: further reduced in frequency
  intensity of the repetitive migraines, versus past history: further reduced in frequency and intensity
  severity of the usual initial migraine, versus past history: less severe
